Reference: patent US20050042266A1, “Cyanoacrylate compositions containing anti-microbial agent” (priority 2003, published 2005)

How the values were obtained:
[1] = Solubility and stability of 1 wt % triclosan in 2-octyl cyanoacrylate monomer (visual observation); type: physicochemical
Method: A 2-octyl cyanoacrylate monomer composition is prepared by adding 1 wt % triclosan to 2 mL of 2-octyl cyanoacrylate monomer. The mixture is sealed in a glass vial or plastic vial and stirred. The characteristics of the composition are observed at about one minute after preparation and later at least twenty-four hours after preparation.

[2] = Compatibility of triclosan/2-octyl cyanoacrylate composition with sterilization (visual observation); type: physicochemical
Method: A 2-octyl cyanoacrylate monomer composition is prepared as in Example 1 by adding 1 wt % triclosan to 2 mL of 2-octyl cyanoacrylate monomer. The mixture is sealed in a glass vial or plastic vial and stirred.
After sitting for about twenty-four hours, the mixture contained in the plastic vial is sterilized using electron beam sterilization to a Sterility Assurance Level (SAL) of 10^−6. After sitting for about twenty-four hours, the mixture contained in the glass vial is sterilized using dry heat sterilization to a Sterility Assurance Level (SAL) of 10^−6. The characteristics of the sterilized compositions are observed at about one minute after sterilization and later at least twenty-four hours after sterilization.

**Q.** Which results are given for `Oc1cc(Cl)ccc1Oc1ccc(Cl)cc1Cl` [triclosan, 2,4,4′-trichloro-2 hydroxy di-phenyl ether]?
**A.** premature polymerization (stability of monomer composition) ([1]; 1 wt % in 2-octyl cyanoacrylate, about one minute and at least twenty-four hours after preparation): does not cause premature polymerization; solubility in the monomer ([1]; 1 wt % in 2 mL 2-octyl cyanoacrylate, observed about one minute and at least twenty-four hours after preparation, solution remains clear): soluble in the monomer; compatibility with dry heat sterilization ([2]; 1 wt % in 2-octyl cyanoacrylate, glass vial, SAL 10^-6, solution remains clear): compatible; compatibility with electron beam sterilization ([2]; 1 wt % in 2-octyl cyanoacrylate, plastic vial, SAL 10^-6, solution remains clear): compatible with electron beam sterilization; premature polymerization during or after sterilization ([2]; about one minute and at least twenty-four hours after sterilization): does not cause premature polymerization during or after sterilization
